{
  "source": "patent US20210030757A1",
  "about": "“METHOD OF TREATMENT AND COMPOSITIONS COMPRISING A DUAL P13K DELTA-GAMMA KINASE INHIBITOR AND A CORTICOSTEROID” (priority 2014, published 2021)",
  "key": {"MIF": {"test_system": "MIF", "assay": "MIF mRNA expression in peripheral neutrophils from COPD patients (RT-PCR)", "type": "cell-based, human", "details": "CSE 5%; Compound A exposure", "method": "(§1) Measurement of basal RNA expression of corticosteroid resistant mediators: Total RNA was isolated from peripheral human neutrophils from COPD patients in basal conditions and after experimental conditions. Cells were homogenized and RNA was extracted using TriPure® Isolation Reagent (Roche, Indianapolis, USA). The reverse transcription was performed in 300 ng of total RNA with TaqMan reverse transcription reagents kit (Applied Biosystems, Perkin-Elmer Corporation, CA, USA). 1.5 μl of result cDNA was amplified with specific predesigned primers (Applied Biosystems) for MIF (cat no Hs00236988), MKP-1 (cat no Hs00610256), PI3K-δ (cat n° Hs00192399), PI3Kγ (cat n° Hs00277090) and GAPDH (cat no 4310884E) as endogenous control in a 7900HT Fast Real-Time PCR System (Applied Biosystem) using Universal Master Mix (Applied Biosystems). Relative quantification of these different transcripts was determined with the 2^−ΔΔct method and normalized to control groups.\n(§2) mRNA expression of the MIF, MKP-1, PI3K-δ and PI3Kγ genes was measured in basal conditions and at the end of the experiments.\n(§3) Experiments were done in triplicate in at least three patients per experimental condition."}, "[1]": {"test_system": "human neutrophils from COPD patients", "assay": "CSE-induced IL-8 release in peripheral blood neutrophils from COPD patients", "type": "cell-based", "details": "stimulus CSE 5%, 6 h, mean ± SEM; for IC50: Homo sapiens, Neutrophil, read-out: −log IC50 (IL-8 release) (converted)", "method": "(§4) Neutrophils were isolated from peripheral venous blood by standard laboratory procedures. In brief, peripheral venous blood was mixed with dextran 500 at 3% (in 0.9% saline) in a proportion of 2:1. This mixture was incubated at room temperature for 30 min until erythrocytes were sedimented. The upper phase was carefully collected and added on Ficoll-Paque Histopaque 1077 (Amershan Pharmacia Biotech, Barcelona, Espana) density gradient in a proportion of 3:1. The two phases generated were centrifuged at 150 g, 4° C. for 30 min. Thus, the pellet obtained (which is consisted a mixture of neutrophils and low proportion of residual erythrocytes and traces of eosinophils and basophils) was resuspended in an erythrocyte lysis buffer (Biolegend, UK) for 5 min in ice. Cell suspension was washed two times with phosphate buffer (PBS). […] Neither purity nor viability was affected in the study's different experimental conditions.\n(§5) CSE was prepared as follows: Briefly, the smoke of a research cigarette (2R4F; Tobacco Health Research, University of Kentucky, Ky., USA) was generated by a respiratory pump (Apparatus Rodent Respirator 680; Harvard, Germany) through a puffing mechanism related to the human smoking pattern (3 puff/min; 1 puff 35 ml; each puff of 2 s duration with 0.5 cm above the filter) and was bubbled into a flask containing 25 ml of pre-warmed (37° C.) Roswell Park Memorial Institute (RPMI)-1640 culture medium. The CSE solution was sterilized by filtration through a 0.22-μm cellulose acetate sterilizing system (Corning, N.Y.). The resultant CSE solution was considered to be 100% CSE and was used for experiments within 30 min of preparation. CSE 10% corresponds approximately to the exposure associated with smoking two packs per day. The quality of the prepared CSE solution was assessed based on the absorbance at 320 nm, which is the specific absorption wavelength of peroxynitrite. Stock solutions with an absorbance value of 3.0±0.1 were used. To test for cytotoxicity from CSE, isolated neutrophils were treated with CSE concentrations of up to 5% for […].\n(§6) Isolated human neutrophils from healthy volunteers and COPD patients were incubated with Compound A (0.01 nM-100 μM) and Dexamethasone (0.1 nM-1 μM) or vehicle for 30 minutes before incubation with or without CSE 5% for 6 hours in standard cell culture conditions (37° C. and 5% CO2). Supernatants were collected to measure different inflammatory markers.\n(§7) IL-8 was measured by ELISA using a commercially available kit.\n(§8) Experiments were done in triplicate in […] three patients per experimental condition.\n(§9) Neutrophils from healthy and COPD patients were stimulated with CSE 5% in the presence of Compound A (0.01 nM-100 μM) or dexamethasone (DEX; 0.1 nM-1 μM) for 6 h and IL-8 supernatants were measured."}, "MKP-1": {"test_system": "MKP-1", "assay": "MKP-1 mRNA expression in peripheral neutrophils from COPD patients (RT-PCR)", "type": "cell-based, human", "details": "CSE 5%; 10 nM or 100 nM Compound A", "method": "as §1, §2, §3"}, "Balb/c mice [2]": {"test_system": "Balb/c mice", "assay": "Chronic cigarette smoke induced cell infiltration in male Balb/c mice (BALF cells and cytokines)", "type": "in vivo", "method": "Animals were acclimatized for seven days prior to the start of the experiment. Animals were randomly distributed to various groups based on their body weights. Mice were exposed to the mainstream smoke of 2 cigarettes from day 1 to day 11. Exposure to the smoke of each cigarette lasted for 10 min (each cigarette was completely burned in the first two minutes, followed by an air flow with animal ventilator) and were exposed for the next 20 min with fresh room air. After every second cigarette an additional break of 20 min with exposure to fresh room air was conducted. Control animals were exposed to the room air chamber. Test compound was administered by the intranasal route as suspension from day 12 to day 14 before 30 mins whole body smoke exposure. Mice were exposed to the mainstream smoke of 1 cigarette from day 12 to day 14. On day 15, 24 hours after the last cigarette smoke (CS) exposure animals were exsanguinated under anaesthesia, and the trachea was cannulated and the lungs were lavaged with 0.5 ml aliquots of heparinised PBS (1 unit/ml) four times through tracheal cannula (total volume 2 ml). Bronchioalveolar (BAL) collected was stored at 2-8° C. until assayed for total cell and differential leukocyte count. BAL fluid was centrifuged (500×g for 10 min) and the resulting cell pellet was resuspended in 0.5 ml of heparinised saline. The total number of white blood cells was determined in BAL fluid and blood using a blood cell counter and adjusted to 1×10^6 cell/ml. Differential cell count was calculated manually. Forty microliters of the cell suspension was centrifuged using cytospin 3 to prepare a cell smear. The cell smear was stained with a blood staining solution for differentiation and microscopically observed by identifying each cell according to its morphological characteristics. The number of each cell type among 300 white blood cells in the cell smear was determined and expressed as a percentage, and the number of neutrophils and macrophages in each BAL fluid were calculated. In addition BAL supernatant were analysed for various cytokinines using ELISA assay."}, "[3]": {"test_system": "human neutrophils from healthy volunteers", "assay": "CSE-induced IL-8 release in peripheral blood neutrophils from healthy non-smokers", "type": "cell-based", "details": "stimulus CSE 5%, 6 h, mean ± SEM; for IC50: Homo sapiens, Neutrophil, read-out: −log IC50 (IL-8 release) (converted)", "method": "as §4, §5, §6, §7, §8, §9"}, "Balb/c mice [4]": {"test_system": "Balb/c mice", "assay": "Reversal of corticosteroid insensitivity in chronic cigarette smoke induced cell infiltration in male Balb/c mice", "type": "in vivo", "details": "Mus musculus, Macrophage, inhaled or nasal; murine chronic COPD model; intranasal; read-out: ED50 (cell count in BAL, macrophage infiltration)", "method": "Animals were acclimatized for seven days prior to the start of the experiment. Animals were randomly distributed to various groups based on their body weights. Mice were exposed to the mainstream smoke of 2 cigarettes from day 1 to day 11. Exposure to the smoke of each cigarette lasted for 10 min (each cigarette was completely burned in the first two minutes, followed by an air flow with animal ventilator) and were exposed for the next 20 min with fresh room air. After every second cigarette an additional break of 20 min with exposure to fresh room air was conducted. Control animals were exposed to the room air chamber. Corticosteroid, fluticasone was administered by intranasal route from day 6 to day 11 before 30 mins whole body smoke exposure. Mice were exposed to the mainstream smoke of 1 cigarette from day 12 to day 14. […] The total number of white blood cells was determined in BAL fluid and blood using a blood cell counter and adjusted to 1×10^6 cell/ml. Differential cell count was calculated manually. […] The number of each cell type among 300 white blood cells in the cell smear was determined and expressed as a percentage, and the number of neutrophils and macrophages in each BAL fluid were calculated. In addition BAL supernatant were analysed for various cytokines using ELISA assay."}, "PI3K": {"test_system": "PI3K", "assay": "PI3K activity (PIP3 production, PI3-Kinase Activity ELISA) in neutrophils from COPD patients", "type": "cell-based, human", "details": "Compound A 10 nM, 1 h, CSE 5% 30 min", "method": "Measurement of Pi3K isoforms: To measure PI3K activity, neutrophils from COPD patients were isolated and incubated with Compound A at 10 nM for 1 h. Then cells were stimulated with CSE 5% for 30 min. After cell stimulation, neutrophils were centrifuged and total protein was extracted from neutrophils. Total protein amount was measured using The Bio-Rad assay (Bio-Rad Laboratories Ltd., Herts, UK) to ensure equal amount. PI3K activity was measured using the PI3-Kinase Activity ELISA: Pico (cat. no k-1000 s, Echelon Bioscience, Salt Lake City, USA) according to the manufacturer's protocol. In brief, PI3-K reactions were run with the Class I PI3-K physiological substrate PI(4,5)P2 (PIP2). The enzyme reactions, PIP3 standards and controls were then mixed and incubated with PIP3 binding protein that is highly specific and sensitive to PIP3. This mixture was then transferred to a PIPI3-coated microplate for competitive binding. Afterwards, a peroxidase-linked secondary detector and colorimetric detection was used to detect the amount of PIP3 produced by PI3-K through comparing the enzyme reactions with a PIP3 standard curve.\nas §3"}, "PI3Kγ": {"test_system": "PI3Kγ", "assay": "PI3Kγ mRNA expression in peripheral neutrophils from COPD patients (RT-PCR)", "type": "cell-based, human", "details": "CSE 5%; 10 nM or 100 nM Compound A", "method": "as §1, §2, §3"}},
  "data": [
    {"compound": "CC(C)Oc1ccc(-c2nn([C@@H](C)c3oc4cccc(F)c4c(=O)c3-c3cccc(F)c3)c3ncnc(N)c23)cc1F", "note": "[Compound A]", "values": [
      {"measurement": "expression of MIF (mRNA)", "setting": "MIF", "value": "not significantly affected"},
      {"measurement": "IC50", "setting": "[1]", "value": 0.0479, "unit": "µM"},
      {"measurement": "Maximal % Inhibition of IL-8 release", "setting": "[1]", "value": 85.14, "unit": "%"},
      {"measurement": "expression of MKP1 (mRNA)", "setting": "MKP-1", "value": "increased the expression of MKP1 near to control levels"},
      {"measurement": "Macrophage count in BAL fluid", "setting": "Balb/c mice [2]; 0.003-3 mg/kg intranasal, day 12 to 14, vs disease controls", "value": "significantly reduced toward normal"},
      {"measurement": "IFNγ in BALF (% inhibition)", "setting": "Balb/c mice [2]; dose 0.003 mg/kg intranasal", "value": 0, "unit": "%"},
      {"measurement": "IL-6 in BALF (% inhibition)", "setting": "Balb/c mice [2]; dose 0.003 mg/kg intranasal", "value": 11, "unit": "%"},
      {"measurement": "IL-12/IL-23 in BALF (% inhibition)", "setting": "Balb/c mice [2]; dose 0.003 mg/kg intranasal", "value": 0, "unit": "%"},
      {"measurement": "TNFα in BALF (% inhibition)", "setting": "Balb/c mice [2]; dose 0.003 mg/kg intranasal", "value": 17, "unit": "%"},
      {"measurement": "IFNγ in BALF (% inhibition)", "setting": "Balb/c mice [2]; dose 0.03 mg/kg intranasal", "value": 25, "unit": "%"},
      {"measurement": "IL-6 in BALF (% inhibition)", "setting": "Balb/c mice [2]; dose 0.03 mg/kg intranasal", "value": 44, "unit": "%"},
      {"measurement": "IL-12/IL-23 in BALF (% inhibition)", "setting": "Balb/c mice [2]; dose 0.03 mg/kg intranasal", "value": 0, "unit": "%"},
      {"measurement": "TNFα in BALF (% inhibition)", "setting": "Balb/c mice [2]; dose 0.03 mg/kg intranasal", "value": 40, "unit": "%"},
      {"measurement": "IFNγ in BALF (% inhibition)", "setting": "Balb/c mice [2]; dose 0.3 mg/kg intranasal", "value": 90, "unit": "%"},
      {"measurement": "IL-6 in BALF (% inhibition)", "setting": "Balb/c mice [2]; dose 0.3 mg/kg intranasal", "value": 99, "unit": "%"},
      {"measurement": "IL-12/IL-23 in BALF (% inhibition)", "setting": "Balb/c mice [2]; dose 0.3 mg/kg intranasal", "value": 100, "unit": "%"},
      {"measurement": "TNFα in BALF (% inhibition)", "setting": "Balb/c mice [2]; dose 0.3 mg/kg intranasal", "value": 99, "unit": "%"},
      {"measurement": "IC50", "setting": "[3]", "value": 0.295, "unit": "µM"},
      {"measurement": "Maximal % Inhibition of IL-8 release", "setting": "[3]", "value": "97.4±5.3", "unit": "%"},
      {"measurement": "ED50", "setting": "Balb/c mice [4]", "value": 0.093, "unit": "mg/kg"},
      {"measurement": "PI3K activity measured as PIP3 production", "setting": "PI3K", "value": "completely suppressed"},
      {"measurement": "CSE induced PI3Kγ expression (mRNA)", "setting": "PI3Kγ", "value": "significant reduction"}
    ]},
    {"compound": "C[C@@H]1C[C@H]2[C@@H]3CCC4=CC(=O)C=C[C@]4(C)[C@@]3(F)[C@@H](O)C[C@]2(C)[C@@]1(O)C(=O)CO", "note": "[dexamethasone, reference compound]", "values": [
      {"measurement": "IC50", "setting": "[1]", "value": 0.0135, "unit": "µM"},
      {"measurement": "Maximal % Inhibition of IL-8 release", "setting": "[1]", "value": "19.84 ± 11.46", "unit": "%"},
      {"measurement": "IC50", "setting": "[3]", "value": 0.0141, "unit": "µM"},
      {"measurement": "Maximal % Inhibition of IL-8 release", "setting": "[3]", "value": 83.9, "unit": "%"}
    ]}
  ]
}
